Assay results: ChEMBL document CHEMBL1201862, “PubChem BioAssay data set” (2004)
The source made the active and inactive calls.

Legend:
[1] = target: T1, RNA-binding protein pos-1 (Caenorhabditis elegans, UniProt G5EF15); assay: inhibitors of POS-1/mex-3 RNA binding, dose response, biochemical, fluorescence polarization (AID 1964);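 also: purified POS-1 fused to maltose binding protein made in E. coli; potency of compounds blocking POS-1 binding to fluorescent RNA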
T1 sequence (G5EF15 whole entry): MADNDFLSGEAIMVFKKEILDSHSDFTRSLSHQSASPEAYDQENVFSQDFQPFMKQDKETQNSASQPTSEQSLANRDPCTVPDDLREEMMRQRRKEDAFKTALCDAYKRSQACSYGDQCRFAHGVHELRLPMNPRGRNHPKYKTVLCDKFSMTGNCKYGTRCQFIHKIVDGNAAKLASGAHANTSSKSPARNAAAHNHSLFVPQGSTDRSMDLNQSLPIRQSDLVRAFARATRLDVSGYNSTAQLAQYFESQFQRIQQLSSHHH

[2] = target: T2, Histone-lysine N-methyltransferase NSD2 (Homo sapiens, UniProt O96028); assay type: biochemical
T2 sequence (O96028 whole entry): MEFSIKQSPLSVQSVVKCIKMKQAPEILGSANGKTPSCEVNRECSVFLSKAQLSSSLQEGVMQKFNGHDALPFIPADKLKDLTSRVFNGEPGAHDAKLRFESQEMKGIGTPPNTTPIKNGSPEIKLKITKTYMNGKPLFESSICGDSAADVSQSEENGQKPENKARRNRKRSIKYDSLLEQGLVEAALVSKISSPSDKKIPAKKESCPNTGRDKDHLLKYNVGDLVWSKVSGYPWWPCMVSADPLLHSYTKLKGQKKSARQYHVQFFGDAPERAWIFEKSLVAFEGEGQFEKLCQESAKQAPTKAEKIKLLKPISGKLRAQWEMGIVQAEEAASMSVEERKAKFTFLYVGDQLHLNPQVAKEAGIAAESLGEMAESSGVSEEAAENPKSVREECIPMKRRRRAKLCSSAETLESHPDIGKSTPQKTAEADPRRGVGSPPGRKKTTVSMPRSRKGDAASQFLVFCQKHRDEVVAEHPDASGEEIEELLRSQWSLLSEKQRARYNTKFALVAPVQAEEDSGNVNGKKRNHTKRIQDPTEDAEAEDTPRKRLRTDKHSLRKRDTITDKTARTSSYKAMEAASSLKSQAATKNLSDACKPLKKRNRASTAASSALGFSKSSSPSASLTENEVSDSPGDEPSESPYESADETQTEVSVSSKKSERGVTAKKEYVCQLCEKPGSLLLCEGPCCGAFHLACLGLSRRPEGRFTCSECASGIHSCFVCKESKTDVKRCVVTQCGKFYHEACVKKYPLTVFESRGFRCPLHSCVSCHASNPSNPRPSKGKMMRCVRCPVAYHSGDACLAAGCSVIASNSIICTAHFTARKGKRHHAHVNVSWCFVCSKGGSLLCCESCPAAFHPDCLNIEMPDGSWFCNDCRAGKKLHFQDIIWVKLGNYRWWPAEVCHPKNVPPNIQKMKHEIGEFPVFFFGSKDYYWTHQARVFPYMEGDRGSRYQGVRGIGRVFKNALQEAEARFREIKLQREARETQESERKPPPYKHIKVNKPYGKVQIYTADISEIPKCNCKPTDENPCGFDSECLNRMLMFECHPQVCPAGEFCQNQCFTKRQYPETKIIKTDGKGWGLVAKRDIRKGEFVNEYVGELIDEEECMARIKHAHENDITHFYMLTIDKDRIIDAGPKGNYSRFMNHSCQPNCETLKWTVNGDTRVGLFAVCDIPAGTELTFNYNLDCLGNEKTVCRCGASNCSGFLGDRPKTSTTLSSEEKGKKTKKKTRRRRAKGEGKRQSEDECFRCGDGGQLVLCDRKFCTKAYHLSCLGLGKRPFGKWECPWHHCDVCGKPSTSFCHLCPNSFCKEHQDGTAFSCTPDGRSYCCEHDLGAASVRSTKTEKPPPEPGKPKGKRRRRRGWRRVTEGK

[3] = target: T3, Sentrin-specific protease 6 (Homo sapiens, UniProt Q9GZR1); assay: SAR Analysis of small molecule inhibitors of Sentrin-specific protease 6 (SENP6) using a Luminescent assay. [Related pubchem assays (depositor defined):AID2582, AID2599]; assay type: functional
T3 sequence (Q9GZR1 whole entry): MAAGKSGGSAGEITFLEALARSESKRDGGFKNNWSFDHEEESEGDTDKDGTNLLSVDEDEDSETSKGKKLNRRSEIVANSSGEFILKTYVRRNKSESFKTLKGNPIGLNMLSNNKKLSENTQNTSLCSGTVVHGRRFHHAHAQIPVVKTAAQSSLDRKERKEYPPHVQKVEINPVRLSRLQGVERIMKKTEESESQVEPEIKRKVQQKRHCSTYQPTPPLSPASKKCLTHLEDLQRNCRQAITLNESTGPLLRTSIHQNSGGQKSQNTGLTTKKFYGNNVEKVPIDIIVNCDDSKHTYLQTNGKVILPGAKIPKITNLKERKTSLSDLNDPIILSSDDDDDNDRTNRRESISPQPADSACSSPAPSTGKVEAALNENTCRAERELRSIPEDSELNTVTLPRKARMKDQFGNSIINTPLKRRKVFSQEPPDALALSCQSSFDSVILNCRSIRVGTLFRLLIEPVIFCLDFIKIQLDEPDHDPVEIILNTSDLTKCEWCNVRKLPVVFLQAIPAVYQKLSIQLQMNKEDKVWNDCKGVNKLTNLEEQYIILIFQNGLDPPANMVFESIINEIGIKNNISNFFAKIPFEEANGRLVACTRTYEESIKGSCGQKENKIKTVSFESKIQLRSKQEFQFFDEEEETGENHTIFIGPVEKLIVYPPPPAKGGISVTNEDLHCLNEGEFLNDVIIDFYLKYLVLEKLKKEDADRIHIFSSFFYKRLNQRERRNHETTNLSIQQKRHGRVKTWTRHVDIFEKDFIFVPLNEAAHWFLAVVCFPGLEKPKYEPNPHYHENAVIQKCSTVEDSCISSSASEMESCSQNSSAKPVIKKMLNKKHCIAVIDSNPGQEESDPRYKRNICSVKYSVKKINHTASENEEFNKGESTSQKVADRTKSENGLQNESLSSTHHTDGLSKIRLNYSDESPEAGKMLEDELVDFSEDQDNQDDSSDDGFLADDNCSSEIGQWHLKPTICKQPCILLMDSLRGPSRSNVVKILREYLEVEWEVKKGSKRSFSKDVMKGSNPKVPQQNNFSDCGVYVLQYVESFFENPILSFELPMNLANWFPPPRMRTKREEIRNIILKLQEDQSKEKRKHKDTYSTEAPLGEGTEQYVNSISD

[4] = target: Receptor tyrosine-protein kinase erbB-4 (Homo sapiens, UniProt Q15303); assay type: functional;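 also: ERBB4 member of a kinome-wide kinase profiling panel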
Sequence of Receptor tyrosine-protein kinase erbB-4 (Q15303 whole entry): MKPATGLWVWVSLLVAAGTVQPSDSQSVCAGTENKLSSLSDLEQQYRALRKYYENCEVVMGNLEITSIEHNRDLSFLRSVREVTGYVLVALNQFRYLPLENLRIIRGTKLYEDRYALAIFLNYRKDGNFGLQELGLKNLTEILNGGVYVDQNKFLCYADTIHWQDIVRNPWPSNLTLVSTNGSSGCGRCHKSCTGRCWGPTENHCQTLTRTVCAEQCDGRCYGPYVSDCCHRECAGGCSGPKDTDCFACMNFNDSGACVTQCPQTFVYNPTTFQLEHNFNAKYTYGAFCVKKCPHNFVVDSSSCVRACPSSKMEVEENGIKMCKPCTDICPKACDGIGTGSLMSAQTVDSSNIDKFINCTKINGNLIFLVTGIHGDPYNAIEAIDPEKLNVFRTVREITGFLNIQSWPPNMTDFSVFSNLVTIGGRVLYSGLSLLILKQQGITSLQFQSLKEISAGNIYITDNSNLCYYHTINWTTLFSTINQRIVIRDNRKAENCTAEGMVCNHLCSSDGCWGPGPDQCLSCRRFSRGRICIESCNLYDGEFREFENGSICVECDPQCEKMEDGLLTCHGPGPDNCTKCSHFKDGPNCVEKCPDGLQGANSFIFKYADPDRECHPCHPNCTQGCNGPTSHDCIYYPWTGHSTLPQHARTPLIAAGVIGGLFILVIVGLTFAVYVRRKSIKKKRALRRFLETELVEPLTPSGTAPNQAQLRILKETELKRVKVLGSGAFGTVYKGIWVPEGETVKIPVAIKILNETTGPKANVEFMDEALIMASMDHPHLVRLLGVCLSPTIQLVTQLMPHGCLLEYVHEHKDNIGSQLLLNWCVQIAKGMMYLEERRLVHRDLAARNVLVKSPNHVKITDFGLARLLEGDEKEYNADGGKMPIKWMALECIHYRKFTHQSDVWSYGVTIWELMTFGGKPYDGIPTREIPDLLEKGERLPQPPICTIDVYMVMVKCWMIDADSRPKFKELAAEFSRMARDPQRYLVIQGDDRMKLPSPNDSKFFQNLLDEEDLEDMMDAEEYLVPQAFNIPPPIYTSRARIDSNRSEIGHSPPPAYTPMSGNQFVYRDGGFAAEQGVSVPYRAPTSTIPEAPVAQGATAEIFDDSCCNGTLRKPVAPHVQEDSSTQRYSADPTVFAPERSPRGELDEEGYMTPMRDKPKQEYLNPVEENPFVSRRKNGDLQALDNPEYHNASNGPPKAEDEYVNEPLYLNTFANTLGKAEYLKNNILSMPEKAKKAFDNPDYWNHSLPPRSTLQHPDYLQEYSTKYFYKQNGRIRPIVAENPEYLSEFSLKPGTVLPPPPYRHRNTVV

[5] = target: Serine/threonine-protein kinase Chk2 (Homo sapiens, UniProt O96017); assay type: functional;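 also: CHEK2 entry within a kinome-wide screening panel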
Sequence of Serine/threonine-protein kinase Chk2 (O96017 whole entry): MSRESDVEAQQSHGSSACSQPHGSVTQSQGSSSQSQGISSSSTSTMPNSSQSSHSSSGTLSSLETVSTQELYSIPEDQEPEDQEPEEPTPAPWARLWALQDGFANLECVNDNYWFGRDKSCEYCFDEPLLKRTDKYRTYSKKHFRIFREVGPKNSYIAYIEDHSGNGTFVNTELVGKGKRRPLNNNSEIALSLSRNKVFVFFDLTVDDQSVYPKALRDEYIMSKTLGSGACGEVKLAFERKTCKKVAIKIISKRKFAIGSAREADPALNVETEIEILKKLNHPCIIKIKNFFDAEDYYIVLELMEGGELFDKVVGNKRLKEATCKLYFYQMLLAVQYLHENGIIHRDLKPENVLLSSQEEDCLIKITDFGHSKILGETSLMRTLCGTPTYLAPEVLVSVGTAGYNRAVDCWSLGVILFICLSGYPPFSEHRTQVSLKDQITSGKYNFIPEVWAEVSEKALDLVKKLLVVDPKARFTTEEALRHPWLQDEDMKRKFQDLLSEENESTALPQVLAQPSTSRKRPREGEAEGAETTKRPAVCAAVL

[6] = target: Protein kinase C iota type (Homo sapiens, UniProt P41743); assay type: functional;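 also: measured within a kinome-wide kinase panel, PRKCI as panel member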
Sequence of Protein kinase C iota type (P41743 whole entry): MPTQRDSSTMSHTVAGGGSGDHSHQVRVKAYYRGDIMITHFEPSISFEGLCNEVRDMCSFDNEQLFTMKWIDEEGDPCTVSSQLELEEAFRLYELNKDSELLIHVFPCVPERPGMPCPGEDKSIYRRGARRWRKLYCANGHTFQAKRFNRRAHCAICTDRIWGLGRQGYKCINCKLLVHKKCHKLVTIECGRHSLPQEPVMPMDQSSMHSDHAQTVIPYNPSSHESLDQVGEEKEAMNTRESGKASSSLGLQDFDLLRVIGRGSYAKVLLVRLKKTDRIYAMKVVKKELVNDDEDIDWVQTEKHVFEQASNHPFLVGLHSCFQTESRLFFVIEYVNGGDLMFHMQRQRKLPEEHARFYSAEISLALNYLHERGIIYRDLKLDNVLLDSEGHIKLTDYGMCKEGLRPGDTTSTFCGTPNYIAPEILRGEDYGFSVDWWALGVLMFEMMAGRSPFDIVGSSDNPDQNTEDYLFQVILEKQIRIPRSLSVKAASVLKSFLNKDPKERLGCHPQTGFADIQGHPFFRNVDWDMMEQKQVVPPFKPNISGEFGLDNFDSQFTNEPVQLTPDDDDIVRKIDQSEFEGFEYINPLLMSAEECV

[7] = target: Intestinal-type alkaline phosphatase (Mus musculus, UniProt P24822); assay: PubChem AID 488874; assay type: functional
Sequence of Intestinal-type alkaline phosphatase (P24822 whole entry): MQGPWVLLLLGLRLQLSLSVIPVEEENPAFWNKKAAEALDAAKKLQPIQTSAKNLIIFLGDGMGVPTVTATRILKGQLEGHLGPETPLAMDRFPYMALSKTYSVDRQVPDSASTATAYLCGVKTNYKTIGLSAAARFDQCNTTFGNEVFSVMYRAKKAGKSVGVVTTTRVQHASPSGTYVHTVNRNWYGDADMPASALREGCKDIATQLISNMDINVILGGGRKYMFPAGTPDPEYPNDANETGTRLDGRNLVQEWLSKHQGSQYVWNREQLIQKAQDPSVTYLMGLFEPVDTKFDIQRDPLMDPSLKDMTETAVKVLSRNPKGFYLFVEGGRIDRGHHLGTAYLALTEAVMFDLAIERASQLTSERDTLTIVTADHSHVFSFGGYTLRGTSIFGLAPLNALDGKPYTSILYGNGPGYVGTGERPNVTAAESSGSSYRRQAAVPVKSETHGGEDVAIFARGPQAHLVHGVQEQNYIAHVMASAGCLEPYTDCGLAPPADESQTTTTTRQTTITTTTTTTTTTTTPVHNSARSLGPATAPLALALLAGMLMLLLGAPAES

SMILES: O=C(O)C1Nc2c(O)cc(Cl)c([N+](=O)[O-])c2C2C=CCC12 (configuration not stated)
- EC50 [1]: 216 µM (inconclusive)

SMILES: O=C1C=C(N2CCCCC2)c2ccccc2C1=O
- AC50 [2]: 1.11 µM (active)

SMILES: O=C(CCc1ccccc1)NNc1cc(N2CCCCC2)nc(N2CCCCC2)n1
- IC50 [3]: 35.7 µM (active)

SMILES: Cc1n[nH]c2ccc(-c3cncc(OCC(N)Cc4cccc(Cl)c4)c3)cc12 (configuration not stated)
- Ki [4]: > 3.98 µM (inactive)
- Ki [5]: 0.631 µM (active)
- Ki [6]: 1 µM (active)

SMILES: Oc1ccc(N=Nc2c(O)ccc3ccccc23)cc1
- IC50 [7]: 17.4 µM (active)
